Assay results published in patent US20260262643A1, “HERBICIDAL BENZOXAZINES” (FMC CORPORATION, priority 2022, published 2026).

Key:
[1] = system: barnyardgrass; test: Test C preemergence; assay type: in vivo, Echinochloa crusgalli
In short: (§1)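 Seeds in loam–sand blend received preemergence directed soil spray of test chemicals in non-phytotoxic solvent with surfactant; postemergence treatment was applied at one- to two-leaf stage (2–10 cm). After 10 days in greenhouse, injury rated visually versus untreated controls, 0 (no effect) to 100 (complete control).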

[2] = system: blackgrass; test: Test C preemergence; assay type: in vivo, Alopecurus myosuroides
In short: as §1

[3] = system: corn; test: Test C preemergence; assay type: in vivo, Zea mays
In short: as §1

[4] = system: green foxtail; test: Test C preemergence; assay type: in vivo, Setaria viridis
In short: as §1

[5] = system: kochia; test: Test C preemergence; assay type: in vivo, Bassia scoparia
In short: as §1

[6] = system: oat, wild; test: Test C preemergence; assay type: in vivo, Avena fatua
In short: as §1

[7] = system: pigweed, palmer; test: Test C preemergence; assay type: in vivo, Amaranthus palmeri
In short: as §1

[8] = system: ragweed; test: Test C preemergence; assay type: in vivo, Ambrosia artemisiifolia
In short: as §1

[9] = system: ryegrass, Italian; test: Test C preemergence; assay type: in vivo, Lolium multiflorum
In short: as §1

[10] = system: soybean; test: Test C preemergence; assay type: in vivo, Glycine max
In short: as §1

[11] = system: wheat; test: Test C preemergence; assay type: in vivo, Triticum aestivum
In short: as §1

[12] = system: barnyardgrass; test: Test C postemergence; assay type: in vivo, Echinochloa crusgalli; conditions: 10 days, 0 to 100 scale (0 no effect, 100 complete control)
In short: as §1

[13] = system: blackgrass; test: Test C postemergence; assay type: in vivo, Alopecurus myosuroides; conditions: 10 days, 0 to 100 scale (0 no effect, 100 complete control)
In short: as §1

[14] = system: corn; test: Test C postemergence; assay type: in vivo, Zea mays; conditions: 10 days, 0 to 100 scale (0 no effect, 100 complete control)
In short: as §1

[15] = system: green foxtail; test: Test C postemergence; assay type: in vivo, Setaria viridis; conditions: 10 days, 0 to 100 scale (0 no effect, 100 complete control)
In short: as §1

[16] = system: kochia; test: Test C postemergence; assay type: in vivo, Bassia scoparia; conditions: 10 days, 0 to 100 scale (0 no effect, 100 complete control)
In short: as §1

[17] = system: oat, wild; test: Test C postemergence; assay type: in vivo, Avena fatua; conditions: 10 days, 0 to 100 scale (0 no effect, 100 complete control)
In short: as §1

[18] = system: pigweed, palmer; test: Test C postemergence; assay type: in vivo, Amaranthus palmeri; conditions: 10 days, 0 to 100 scale (0 no effect, 100 complete control)
In short: as §1

[19] = system: ragweed; test: Test C postemergence; assay type: in vivo, Ambrosia artemisiifolia; conditions: 10 days, 0 to 100 scale (0 no effect, 100 complete control)
In short: as §1

[20] = system: ryegrass, Italian; test: Test C postemergence; assay type: in vivo, Lolium multiflorum; conditions: 10 days, 0 to 100 scale (0 no effect, 100 complete control)
In short: as §1

[21] = system: soybean; test: Test C postemergence; assay type: in vivo, Glycine max; conditions: 10 days, 0 to 100 scale (0 no effect, 100 complete control)
In short: as §1

[22] = system: wheat; test: Test C postemergence; assay type: in vivo, Triticum aestivum; conditions: 10 days, 0 to 100 scale (0 no effect, 100 complete control)
In short: as §1

[23] = system: galium; test: Test C postemergence; assay type: in vivo, Galium aparine; conditions: 10 days, 0 to 100 scale (0 no effect, 100 complete control)
In short: as §1

[24] = system: horseweed; test: Test C postemergence; assay type: in vivo, Erigeron canadensis; conditions: 10 days, 0 to 100 scale (0 no effect, 100 complete control)
In short: as §1

[25] = system: barnyardgrass; test: Test D flooded paddy test; assay type: in vivo, Echinochloa crus-galli; conditions: 250 g ai/ha, applied to paddy water, visual rating after 13 to 14 days, scale 0 to 100 (0 no effect, 100 complete control)
In short: (§2)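 Compounds go straight into paddy water over 2-leaf plants in pots flooded to 3 cm. Greenhouse holding lasts 13 to 14 days. Injury is scored by eye against controls from 0 (none) to 100 (complete control).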

[26] = system: ducksalad; test: Test D flooded paddy test; assay type: in vivo, Heteranthera limosa; conditions: 250 g ai/ha, applied to paddy water, visual rating after 13 to 14 days, scale 0 to 100 (0 no effect, 100 complete control)
In short: as §2

[27] = system: rice; test: Test D flooded paddy test; assay type: in vivo, Oryza sativa; conditions: 250 g ai/ha, applied to paddy water, visual rating after 13 to 14 days, scale 0 to 100 (0 no effect, 100 complete control)
In short: as §2

[28] = system: sedge, umbrella; test: Test D flooded paddy test; assay type: in vivo, Cyperus difformis; conditions: 250 g ai/ha, applied to paddy water, visual rating after 13 to 14 days, scale 0 to 100 (0 no effect, 100 complete control)
In short: as §2

[29] = 500 g ai/ha, preemergence, 0 to 100 scale (0 no effect, 100 complete control)
[30] = Preemergence, 125 g ai/ha, 0 to 100 scale, 0 no effect, 100 complete control

CCOC[C@H]1CN(C(=O)c2cc(-n3cnc(C4CCC4)n3)cc3c2OCCO3)c2cccc(Cl)c2O1 [Compound 386]
Barnyardgrass plant response rating [1, 29]: 70 | Plant response rating, Barnyardgrass [1, 30]: 40 | Blackgrass plant response rating [2, 29]: 0 | Plant response rating, Blackgrass [2, 30]: 0 | Corn plant response rating [3, 29]: 20 | Plant response rating, Corn [3, 30]: 0 | Foxtail, Green plant response rating [4, 29]: 90 | Plant response rating, Foxtail, Green [4, 30]: 40 | Kochia plant response rating [5, 29]: 70 | Plant response rating, Kochia [5, 30]: 70 | Oat, Wild plant response rating [6, 29]: 40 | Plant response rating, Oat, Wild [6, 30]: 30 | Pigweed, Palmer plant response rating [7, 29]: 100 | Plant response rating, Pigweed, Palmer [7, 30]: 100 | Ragweed plant response rating [8, 29]: 80 | Plant response rating, Ragweed [8, 30]: 20 | Ryegrass, Italian plant response rating [9, 29]: 80 | Plant response rating, Ryegrass, Italian [9, 30]: 50 | Soybean plant response rating [10, 29]: 100 | Plant response rating, Soybean [10, 30]: 50 | Wheat plant response rating [11, 29]: 0 | Plant response rating, Wheat [11, 30]: 0 | Plant response rating, Barnyardgrass ([12]; 500 g ai/ha, postemergence): 30 | Plant response rating, Barnyardgrass ([12]; Postemergence, 125 g ai/ha): 20 | Plant response rating, Blackgrass ([13]; 500 g ai/ha, postemergence): 50 | Plant response rating, Blackgrass ([13]; Postemergence, 125 g ai/ha): 0 | Plant response rating, Corn ([14]; 500 g ai/ha, postemergence): 20 | Plant response rating, Corn ([14]; Postemergence, 125 g ai/ha): 10 | Plant response rating, Foxtail, Green ([15]; 500 g ai/ha, postemergence): 50 | Plant response rating, Foxtail, Green ([15]; Postemergence, 125 g ai/ha): 10 | Plant response rating, Kochia ([16]; 500 g ai/ha, postemergence): 90 | Plant response rating, Kochia ([16]; Postemergence, 125 g ai/ha): 80 | Plant response rating, Oat, Wild ([17]; 500 g ai/ha, postemergence): 0 | Plant response rating, Oat, Wild ([17]; Postemergence, 125 g ai/ha): 0 | Plant response rating, Pigweed, Palmer ([18]; 500 g ai/ha, postemergence): 100 | Plant response rating, Pigweed, Palmer ([18]; Postemergence, 125 g ai/ha): 80 | Plant response rating, Ragweed ([19]; 500 g ai/ha, postemergence): 80 | Plant response rating, Ragweed ([19]; Postemergence, 125 g ai/ha): 50 | Plant response rating, Ryegrass, Italian ([20]; 500 g ai/ha, postemergence): 60 | Plant response rating, Ryegrass, Italian ([20]; Postemergence, 125 g ai/ha): 40 | Plant response rating, Soybean ([21]; 500 g ai/ha, postemergence): 100 | Plant response rating, Soybean ([21]; Postemergence, 125 g ai/ha): 100 | Plant response rating, Wheat ([22]; 500 g ai/ha, postemergence): 10 | Plant response rating, Wheat ([22]; Postemergence, 125 g ai/ha): 10 | Plant response rating, Galium ([23]; 500 g ai/ha, postemergence): 100 | Plant response rating, Galium ([23]; Postemergence, 125 g ai/ha): 100 | Plant response rating, Horseweed ([24]; 500 g ai/ha, postemergence): 60 | Plant response rating, Horseweed ([24]; Postemergence, 125 g ai/ha): 30 | Plant response rating, Barnyardgrass (Flood) [25]: 0 | Plant response rating, Ducksalad (Flood) [26]: 0 | Plant response rating, Rice (Flood) [27]: 0 | Plant response rating, Sedge, Umbrella (Flood) [28]: 0
